Assay: Volatile materials in ventilating oven
Type: physicochemical
Settings: after 2 hours at 141° F. (=60.5° C.) in a ventilating oven
Experimental: The moisture content of raw material Celite 500 is 3.7 weight percent. So, the weight of raw material Celite 500 is close to the dry weight of Celite 500. According to the product specifications of Supragil MNS/90, Soprophor S/40-P, and Supragil WP, the moisture contents of these components are no higher than 2 weight percent. Also, samples of chlorpyrifos technical were tested for volatile materials in a ventilating oven. The weight loss after 2 hours at 141° F. (=60.5° C.) was only 0.6 weight percent. […] Therefore, the dry spreadable granular product as manufactured above contains approximately 2.0 weight percent chlorpyrifos.

CCOP(=S)(OCC)Oc1nc(Cl)c(Cl)cc1Cl [Chlorpyrifos]
weight loss: 0.6 weight percent

From patent US6416775B1, “Dry spreadable carrier for pesticides” (priority 1996, dated 2002)
